From patent US11492629B2, “Extra-chromosomal circular DNA-mediated engineering of plant traits” (Kansas State University Research Foundation, priority 2019, dated 2022) come the findings set out here.

Holding throughout (type): in vivo, Amaranthus palmeri
Experiment [1] has as its system progeny of GR A. palmeri plants (>80-100 EPSPS copies). As to the kind of experiment: Response to 1x glyphosate of progeny from randomly mated glyphosate-resistant (GR) plants grown without selection. The source says: (§1) To investigate the evolution of resistance to glyphosate in response to glyphosate selection pressure, we exposed GS plants (<20 EPSPS copies) to glyphosate for one generation to determine the EPSPS copy number and eccDNA variation in each generation and assess the possibility of evolution of resistance to continuous exposure to glyphosate via eccDNA containing EPSPS gene amplification. This process can be repeated for 6 to 8 generations. We also initiated experiments to examine the reversal of glyphosate resistance to susceptibility in the absence of glyphosate selection pressure by growing GR plants (>80-100 EPSPS copies) in the absence of glyphosate selection and generating progenies by random mating. This process can be repeated for 6 to 8 generations. A portion of progenies will be screened for susceptibility or resistance to glyphosate and determine the EPSPS gene copies and presence or absence of eccDNA in each generation.
The progeny generated from random mating of GR plants (>80-100 EPSPS copies) were used in this study. The seed collected from two GR plants (allowed to mate randomly) were planted and seedlings were generated. Approximately 100 plants from each GR plant were grown in the greenhouse without exposure to glyphosate for seed production. Additionally, approximately 127 seedlings from each of the above GR plant were also grown separately and treated with 1× dose of glyphosate to assess their response. Leaf tissue from 40 plants each was also collected for only EPSPS copy number analysis.

Experiment [2] deals with GS A. palmeri plants (<20 EPSPS copies). As to the kind of experiment: Glyphosate selection of glyphosate-susceptible (GS) seedlings in greenhouse, plant survival.
Description: as §1
Approximately 1,009 seedlings were grown in greenhouse and treated with 0.25, 0.5 and 1× glyphosate (1×: 840 g ae/ha). The survivors have been selected for seed production of G-2 seed. Leaf tissue from 40 plants were collected for copy number analysis before the treatment with glyphosate. Additionally, the leaf samples were also collected from plants (at least 5) that survived glyphosate application.

The subject of another experiment is A. palmeri plants. Briefly: Whole-plant glyphosate treatment of field-collected A. palmeri, injury versus untreated check. The settings on record: 868 g ae ha plus 2% (w/v) ammonium sulfate. The source says:
A. palmeri plants used in this study were generated from seeds collected from a field near Manhattan, Kans., USA, where there was incident of lack of control of this population with glyphosate application in the previous season. This field was exposed to frequent applications of glyphosate in Roundup Ready soybean, grown in rotation. Seed of A. palmeri was randomly sampled from ten plants and pooled. Sixty seedlings from the above sample along with a known glyphosate-susceptible (GS) A. palmeri were germinated and seedlings were transplanted individually into Miracle-Gro potting mix (Marysville, Ohio) in 10 cm×10 cm×10 cm plastic pots and watered from top in a greenhouse (25/20° C. temperature; 15/9 h light day/night, supplemented with […] illumination using sodium vapor lamps). At least 20 plants (10 to 12 cm tall) were treated separately with field use rate [868 g ae ha^−1 plus 2% (w/v) ammonium sulfate] or twice the field use rate of glyphosate. […] Plant survival was assessed four weeks after treatment.
In response to glyphosate treatment [868 g ae ha′ plus 2% (w/v) ammonium sulfate], plants showing injury levels of high (>80%) and low (<30%) in comparison to untreated check were grouped as GS and glyphosate-resistant (GR), respectively. […] DNA was quantified on Nanodrop Spectrophotometer.

The mark [3] stands for this setting: seedlings from plant GR1, 1x glyphosate, 127 plants treated.
Setting [4] is: seedlings from plant GR2, 1x glyphosate, 122 plants treated.
The mark [5] stands for this setting: glyphosate rate 0.25X (1X: 840 g ae/ha), 160 treated plants.
Setting [6] is: glyphosate rate 0.5X (1X: 840 g ae/ha), 430 treated plants.
Where [7] appears, read: glyphosate rate 1X (1X: 840 g ae/ha), 419 treated plants.

Turning to `O=C(O)CNCP(=O)(O)O` [Glyphosate, N-(phosphonomethyl) glycine], the “% survival” value in experiment [1] (seedlings from plant GR1, 1x glyphosate) was 68%; in experiment [1] (seedlings from plant GR2, 1x glyphosate), 72%; in experiment [2] (glyphosate rate 0.25X (1X: 840 g ae/ha)), 16%; in experiment [2] (glyphosate rate 0.5X (1X: 840 g ae/ha)) it was 4%; in experiment [2] (glyphosate rate 1X (1X: 840 g ae/ha)) it was 3%. Further, the Alive in experiment [1] (setting [3]) is reported as 86; in experiment [1] (setting [4]), 88; in experiment [2] (setting [5]), 26; in experiment [2] (setting [6]), 18; in experiment [2] (setting [7]), 13. For the same compound, the Dead in experiment [1] (setting [3]) is given as 41; in experiment [1] (setting [4]), 34; in experiment [2] (setting [5]), 134; in experiment [2] (setting [6]), 412; in experiment [2] (setting [7]), 406. Further, the results for the “injury level in comparison to untreated check” value in the experiment with A. palmeri plants (plants grouped as GR (low injury)) and in the experiment on A. palmeri plants (plants grouped as GS (high injury)) were less than 30% and greater than 80%, respectively.
